# Experiments:
# Format in all cases: cell-based, human
# WI-38 cell line = assay: In vitro cytotoxicity against normal cell line (MTT); set-up: LogIC50 best-fit value, WI-38: unit not given here
# Description: […]. Such values were very high in comparison to the corresponding values on cancer cell lines, which reflect high safety profile of the tested candidates towards normal cell lines.
# MTT assay protocol. This method was applied in accordance with the comprehensive description in Supplementary data. […]
# 5 Raw data of cytotoxity and VEGFR -2 assay […]
# Experimental of biological testing
# 1. In vitro anti-proliferative activity
# MTT assay protocol was applied to assess the anti-proliferative activity of the synthesized compounds. Two human cancer cell lines (MCF-7 and HepG-2) and one normal cell line (WI-38) were used in this test. At first, the cell lines were cultured in RPMI -1640 medium with 10% fetal bovine serum. Antibiotics (100 units/ml penicillin and100 µg/ml streptomycin ) were added at 37 °C in a 5% CO2 incubator. The cell lines were seeded in a 96-well plate at a density of 1.0 x 10^4 cells / well at 37 °C for 24 h under 5% CO2. After incubation, the cells were treated with different […]
# concentration of the synthesized compounds and incubated for 24 h. After 24 h of drug treatment, 20 µl of MTT solution at 5mg/ml was added and incubated for 4 h. Dimethyl sulfoxide (DMSO) in volume of 100 µl was added into each well to dissolve the purple formazan formed. The colorimetric assay was measured and recorded at absorbance of 570 nm using a plate reader (EXL 800, USA). The relative cell viability in percentage was calculated as (A570 of treated samples/A570 of untreated sample) X 100. […]
# Bcl-2 = assay: Western blot, Bcl-2 level in HepG2 cells; details: HepG2, 24 h
# Method: Compound 12lwas subjected to further cellular mechanistic study. The cellular levels of BAX and Bcl-2 were measured using the western blot technique after compound 12l was applied to HepG2 cells for 24 h.
# The western blot technique was applied in accordance with the comprehensive description in Supplementary data[38–40] […]
# The proteins expression of cleaved caspase‐3, BAX, and Bcl‐2 were determined using Western blot analysis. In brief, HepG2 cells were treated with control, or with the synthesized compounds.
# Then cells were lysed in 250 μL precold lysis buffer (pH 7.4: Tris‐Base [10 mM], NaCl [100 mM], ethylenediaminetetraacetic acid [EDTA, 25 mM], ethylene glycol bis (2‐aminoethyl) tetraacetic acid [EGTA, 25 mM], 1% [v/v] NP‐40, and 1% [v/v] Triton X‐100) supplemented with 1:350 protease:phosphatase inhibitors cocktail (Sigma). The cells were immediately frozen at −20°C for 1.5 hours for further lysis, collected by cell scraper, sonicated 3 × 10 seconds, and centrifuged (13000 rpm, 15 minutes). Total protein concentrations in the supernatant were determined colorimetrically using the Pierce 660 nm Protein Assay method (Thermo Fisher Scientific, Rockford, IL), with BSA as the standard. […]
# HepG2 cells = assay: Flow cytometry cell cycle analysis (PI staining); details: HepG2, 10.50 µM, 24 h
# Method: Compound 12I, achieved notable cytotoxic and VEGFR-2 inhibitory potencies was further studied mechanistically for cell cycle progression and induction of apoptosis in HepG2 cells. Cell cycle process was analysed after exposure of HepG2 cells to 12I with a concentration of 10.50 µM for 24 h.
# This assay was applied using propidium iodide (PI) staining in accordance with the comprehensive description in Supplementary data[34]^,[35] […]
# 3. Flow cytometry analysis for cell cycle
# To determine the role of the synthesized compounds in cell cycle distribution, cell cycle analysis was performed using propidium iodide (PI) staining and flow cytometry analysis for compound
# 12l. Flow Cytometry Kit for Cell Cycle Analysis (ab139418_Propidium Iodide Flow Cytometry Kit/BD) was used in this test. HepG2 cells were treated with compound 12l (10.50 µM) for 24 h.
# Then, the cells were fixed in 70% ethanol at 4 °C for 12 h. After that, the cells were washed with cold PBS, incubated with 100 μl RNase A at 37 °C for 30 min, and stained with 400 μl PI in the dark at room temperature for further 30 min. The stained cells were measured using Epics XL-MCL™ Flow Cytometer (Beckman Coulter), and the data were analyzed using Flowing software (version 2.5.1, Turku Centre for Biotechnology, Turku, Finland) .
# [1] = supplement raw data, dose-response curve fit
structure (smiles),measurement,setting,value
"Cc1ccc2oc(SCC(=O)Nc3ccc(C(=O)Nc4cccc(Cl)c4)cc3)nc2c1 [Compound 12l, N-(3-Chlorophenyl)-4–(2-((5-methylbenzo[d]oxazol-2-yl)thio)acetamido)benzamide]",IC50,"WI-38 cell line; WI-38, normal human lung cell line, MTT",37.8 µM
same,"HillSlope best-fit value, WI-38",WI-38 cell line; [1],-0.4502
same,"LogIC50 best-fit value, WI-38",WI-38 cell line; [1],1.577
same,Protein expression (normalized to β-actin) Bcl-2,Bcl-2; control = 1.00,0.47 ± 0.05
same,Bcl-2 level decrease,Bcl-2; versus control,2.12 fold
same,Cell cycle distribution %S,HepG2 cells,38.68%
same,Cell cycle distribution % G2/M,HepG2 cells; listed as 12I,32.10%
same,Cell cycle distribution %Sub-G1 (Pre-G1),HepG2 cells; listed as 12I,0.79%
same,Cell cycle distribution % G2/M,HepG2 cells; listed as 12 l,32.10 ± 181 %
same,Cell cycle distribution %G1,HepG2 cells; listed as 12 l,28.43 ± 0.37 %
same,Cell cycle distribution %S,HepG2 cells; listed as 12 l,38.68 ± 1.81 %
same,Cell cycle distribution %Sub-G1 (Pre-G1),HepG2 cells; listed as 12 l,0.79 ± 0.25%

# — publication PMC9327782, “Benzoxazole derivatives as new VEGFR-2 inhibitors and apoptosis inducers: design, synthesis, in silico studies, and antiproliferative evaluation” (Journal of Enzyme Inhibition and Medicinal Chemistry, 2022)
